Data on 31 molecules can be found in publication PMC7587356, “High-Throughput Screening for Inhibitors of the SARS-CoV-2 Protease Using a FRET-Biosensor” (Molecules, 2020).

Counter-ions that a name gives are not always drawn. Like-named read-outs stand apart in the source and are kept apart here.

In this experiment the target is SARS-CoV-2 3CLpro (Severe acute respiratory syndrome coronavirus 2, UniProt P0DTD1). The experiment can be described thus: biochemical. Also on record: Replicate_1 / Replicate_2 / mean / mean (LOPAC_screen_w_protease): unit not given here. Conditions: for inhibition at 5 µM: 4 h. In kind it is biochemical.
Setting [1] is: LOPAC1280 primary screen with protease, 5 µM compound, mean of two replicates.
The mark [2] stands for this setting: LOPAC1280 primary screen with protease, 5 µM compound, replicate 1.
The mark [3] stands for this setting: LOPAC1280 primary screen with protease, 5 µM compound, replicate 2.
Setting [4] is: sheet LOPAC_screen_w_protease, LOPAC1280 primary screen with protease, 5 µM compound, mean of the two replicates.
Where [5] appears, read: sheet LOPAC_screen_w_protease, LOPAC1280 primary screen with protease, 5 µM compound, replicate 1.
[6] abbreviates: sheet LOPAC_screen_w_protease, LOPAC1280 primary screen with protease, 5 µM compound, replicate 2.
[7] abbreviates: sheet LOPAC_screen_w_protease, LOPAC1280 primary screen at 5 µM, with protease, mean of the two replicates, read-out: mean.
[8] abbreviates: sheet LOPAC_screen_w_protease, LOPAC1280 primary screen at 5 µM, with protease, replicate 1, read-out: Replicate_1.
Where [9] appears, read: sheet LOPAC_screen_w_protease, LOPAC1280 primary screen at 5 µM, with protease, replicate 2, read-out: Replicate_2.
[10] abbreviates: sheet LOPAC_screen_w_protease, primary screen of LOPAC1280 at 5 µM with protease, mean of the two replicates.
Setting [11] is: sheet LOPAC_screen_w_protease, primary screen of LOPAC1280 at 5 µM with protease, replicate 1.
[12] abbreviates: sheet LOPAC_screen_w_protease, primary screen of LOPAC1280 at 5 µM with protease, replicate 2.
The mark [13] stands for this setting: read-out: Replicate_1 (LOPAC_screen_w_protease).
The mark [14] stands for this setting: read-out: Replicate_2 (LOPAC_screen_w_protease).
The mark [15] stands for this setting: sheet LOPAC_screen_w_protease, primary screen with protease, 5 µM, mean of two replicates.
Setting [16] is: sheet LOPAC_screen_w_protease, primary screen with protease, 5 µM, replicate 1.
The mark [17] stands for this setting: sheet LOPAC_screen_w_protease, primary screen with protease, 5 µM, replicate 2.
Where [18] appears, read: sheet LOPAC_screen_w_protease, primary screen with protease, compound at 5 µM, mean of two replicates, read-out: mean.
Where [19] appears, read: sheet LOPAC_screen_w_protease, primary screen with protease, compound at 5 µM, replicate 1, read-out: Replicate_1.
The mark [20] stands for this setting: sheet LOPAC_screen_w_protease, primary screen with protease, compound at 5 µM, replicate 2, read-out: Replicate_2.
Setting [21] is: sheet LOPAC_screen_w_protease, LOPAC1280 primary screen at 5 µM, with protease, mean of the two replicates.
Setting [22] is: sheet LOPAC_screen_w_protease, LOPAC1280 primary screen at 5 µM, with protease, replicate 1.
Setting [23] is: sheet LOPAC_screen_w_protease, LOPAC1280 primary screen at 5 µM, with protease, replicate 2.
Setting [24] is: sheet LOPAC_screen_w_protease, primary screen with protease, compound at 5 µM, mean of two replicates.
The mark [25] stands for this setting: sheet LOPAC_screen_w_protease, primary screen with protease, compound at 5 µM, replicate 1.
Where [26] appears, read: sheet LOPAC_screen_w_protease, primary screen with protease, compound at 5 µM, replicate 2.
Setting [27] is: sheet LOPAC_screen_w_protease, LOPAC1280 at 5 µM, mean of two replicates.
The mark [28] stands for this setting: sheet LOPAC_screen_w_protease, LOPAC1280 at 5 µM, replicate 1.
[29] abbreviates: sheet LOPAC_screen_w_protease, LOPAC1280 at 5 µM, replicate 2.

With `N#C/C(=C\c1ccc(O)c(O)c1)C(=O)NCCCNC(=O)/C(C#N)=C/c1ccc(O)c(O)c1` [Tyrphostin AG 537], the “mean (LOPAC_screen_w_protease)” value under setting [1] came out at 1.443. The “Replicate_1 (LOPAC_screen_w_protease)” value under setting [2] stood at 1.008. In addition, the “Replicate_2 (LOPAC_screen_w_protease)” value under setting [3] came to 1.878.
In the case of `CCCC(C)(COC(N)=O)COC(=O)NC(C)C` (stereo not shown) [Carisoprodol], the inhibition at 5 µM was -0.28% (read-out: Replicate_1), 2.2% (read-out: Replicate_2) and 0.96% (read-out: mean).
Molecule `CC1Cc2cc3c(cc2C(c2ccc(N)cc2)=NN1)OCO3.Cl` (stereo not shown) [GYKI 52895] showed a mean under setting [4] of 5.365. Moreover, under setting [5], the Replicate_1 was found to be 5.021. Under setting [6], this molecule gave a Replicate_2 of 5.7079.
Regarding `CCC1(C2=NCCN2)Cc2ccccc2O1` (stereo not shown) [Efaroxan hydrochloride], the inhibition at 5 µM was 0.692% under setting [7], 2.34% under setting [8] and -0.954% under setting [9].
`CN(C)CCC(c1ccc(Cl)cc1)c1ccccn1.O=C(O)/C=C\C(=O)O` (racemic) [(±)-Chlorpheniramine maleate] registered a Replicate_1 of 0.5322, a Replicate_2 of -0.472 and a mean of 0.03007.
For `C/C=C1\C(=O)C[C@H]2[C@@H]3CCC4=CC(=O)CC[C@]4(C)[C@H]3CC[C@]12C` [(Z)-Gugglesterone], the mean under setting [10] turned out to be 3.352. The Replicate_1 under setting [11] came to 5.164. For the same molecule, under setting [12], the Replicate_2 is reported as 1.54.
Consider `CN(C)CCC(c1ccccc1)c1ccccn1` (stereo not shown) [Pheniramine maleate], for which the inhibition at 5 µM was -0.749% (sheet LOPAC_screen_w_protease, primary screen with protease, 5 µM, mean of two replicates, read-out: mean); 0.594% (sheet LOPAC_screen_w_protease, primary screen with protease, 5 µM, replicate 1, read-out: Replicate_1); -2.09% (sheet LOPAC_screen_w_protease, primary screen with protease, 5 µM, replicate 2, read-out: Replicate_2).
For the molecule `N#C/C(=C\c1ccc(O)c(O)c1)C(=O)NCCCc1ccccc1` [Tyrphostin AG 555], the mean under setting [10] came out at 3.848. Under setting [11], the Replicate_1 came out at 4.708. The same molecule returned a Replicate_2 under setting [12] of 2.988.
Consider `O=c1c(-c2ccc(O)cc2)coc2cc(O)cc(O)c12` [Genistein], for which the inhibition at 5 µM reads like this: under setting [13], 2.15%; under setting [14], 0.656%.
`Br.C[N+](C)(C)CCCCCNCC12CC3CC(CC(C3)C1)C2.[Br-]` [IEM-1460]: under setting [15], the mean turned out to be 0.3994. The Replicate_1 under setting [16] came out at 0.5263. Under setting [17], this molecule yielded a Replicate_2 of 0.2724.
As for `NCC(=O)NCCC(c1ccccc1)c1ccccc1` [N-(3,3-Diphenylpropyl)glycinamide], under setting [1], the “mean (LOPAC_screen_w_protease)” value is recorded as 1.396. Under setting [2], the “Replicate_1 (LOPAC_screen_w_protease)” value worked out at 1.194. Also, the “Replicate_2 (LOPAC_screen_w_protease)” value under setting [3] worked out at 1.598.
On to `NS(=O)(=O)c1cc2c(cc1Cl)NCNS2(=O)=O` [Hydrochlorothiazide], for which the inhibition at 5 µM is, setting by setting: (sheet LOPAC_screen_w_protease, primary screen with protease, mean of two replicates, read-out: mean) 2.22%; (sheet LOPAC_screen_w_protease, primary screen with protease, replicate 1, read-out: Replicate_1) 3.63%; (sheet LOPAC_screen_w_protease, primary screen with protease, replicate 2, read-out: Replicate_2) 0.799%.
For the molecule `C[C@@H]1C(=O)NC2=Nc3cccc(Cl)c3CN21` [Quazinone], the inhibition at 5 µM reads like this: (sheet LOPAC_screen_w_protease, LOPAC1280 primary screen with protease, 5 µM compound, mean of the two replicates, read-out: mean) 4.1%; (sheet LOPAC_screen_w_protease, LOPAC1280 primary screen with protease, 5 µM compound, replicate 1, read-out: Replicate_1) 4.2%; (sheet LOPAC_screen_w_protease, LOPAC1280 primary screen with protease, 5 µM compound, replicate 2, read-out: Replicate_2) 4%.
Regarding `CCC(C)N(C)C(=O)c1cc2ccccc2c(-c2ccccc2Cl)n1` (stereo not shown) [PK 11195], the inhibition at 5 µM under setting [18] was 3.14%, the inhibition at 5 µM under setting [19] was determined as 1.87% and the inhibition at 5 µM under setting [20] was determined as 4.41%.
With `Cl.O=C(O)Cc1c[nH]cn1` [Imidazole-4-acetic acid hydrochloride], under setting [21], the mean is 0.8241. The Replicate_1 under setting [22] is 2.255. Under setting [23], this molecule gave a Replicate_2 of -0.6064.
For `O=C(O)Cc1ccccc1Nc1c(Cl)cccc1Cl` [Diclofenac sodium], the “mean (LOPAC_screen_w_protease)” value came out at 1.426. The inhibition at 5 µM under setting [13] came to 3.59%. Also, under setting [14], the inhibition at 5 µM is -0.743%.
The molecule `Cl.NCC(O)c1cc(O)c(O)cc1F` (stereo not shown) [6-Fluoronorepinephrine hydrochloride] gave a mean under setting [24] of 2.749. Besides, the Replicate_1 under setting [25] was found to be 2.331. Further, the Replicate_2 under setting [26] turned out to be 3.1667.
For the molecule `CCCNCC(O)COc1ccccc1C(=O)CCc1ccccc1` (stereo not shown) [Propafenone hydrochloride], the inhibition at 5 µM by setting is: (sheet LOPAC_screen_w_protease, primary screen of LOPAC1280 at 5 µM with protease, mean of the two replicates, read-out: mean) 3.27%; (sheet LOPAC_screen_w_protease, primary screen of LOPAC1280 at 5 µM with protease, replicate 1, read-out: Replicate_1) 3.05%; (sheet LOPAC_screen_w_protease, primary screen of LOPAC1280 at 5 µM with protease, replicate 2, read-out: Replicate_2) 3.48%.
Regarding `COC(=O)C1=C(C)NC(C)=C([N+](=O)[O-])C1c1ccccc1C(F)(F)F` (racemic) [(±)-Bay K 8644], under setting [24], the mean is on record as 3.088. The Replicate_1 under setting [25] is 2.534. In addition, the Replicate_2 under setting [26] worked out at 3.642.
Under setting [21], `COc1ccc(NC(=O)c2ccc(-c3ccc(-c4noc(C)n4)cc3C)cc2)cc1N1CCN(C)CC1.Cl` [GR 127935 hydrochloride] returned a mean of 0.6456. This molecule also gave a Replicate_1 under setting [22] of 0.5978. Moreover, under setting [23], the Replicate_2 came out at 0.6934.
On to `N.S=C(S)N1CCCC1` [Ammonium pyrrolidinedithiocarbamate], for which, under “sheet LOPAC_screen_w_protease, primary screen at 5 µM, mean of two replicates”, the “mean (LOPAC screen with protease)” value is 72.0091. Further, the “Replicate_1 (LOPAC screen with protease)” value (sheet LOPAC_screen_w_protease, primary screen at 5 µM, replicate 1) was found to be 73.369. In addition, the “Replicate_2 (LOPAC screen with protease)” value (sheet LOPAC_screen_w_protease, primary screen at 5 µM, replicate 2) is 70.6492.
Turning to Picrotoxin, the mean under setting [4] stood at 4.15. Under setting [5], this molecule gave a Replicate_1 of 3.321. For the same molecule, under setting [6], the Replicate_2 is recorded as 4.978.
As for `CO[C@@]1(NC(=O)CSCC#N)C(=O)N2C(C(=O)O)=C(CSc3nnnn3C)CS[C@@H]21` [Cefmetazole sodium], the inhibition at 5 µM runs as follows: (LOPAC1280 primary screen with protease, 5 µM compound, replicate 1, read-out: Replicate_1 (LOPAC_screen_w_protease)) 1.13%; (LOPAC1280 primary screen with protease, 5 µM compound, replicate 2, read-out: Replicate_2 (LOPAC_screen_w_protease)) 2.27%. Moreover, the “mean (LOPAC_screen_w_protease)” value under setting [1] turned out to be 1.702.
Regarding (+)-Cyclazocine, the mean under setting [27] was found to be 1.031. Under setting [28], this molecule returned a Replicate_1 of 2.203. In addition, the Replicate_2 under setting [29] was -0.1419.
`N#Cc1c(-c2ccccc2)no[n+]1[O-]` [4-Phenyl-3-furoxancarbonitrile] returned a mean under setting [24] of 2.827. Under setting [25], this molecule showed a Replicate_1 of 3.156. Under setting [26], this molecule gave a Replicate_2 of 2.497.
In turn, `CN1[C@@H](CC(=O)c2ccccc2)CCC[C@H]1C[C@H](O)c1ccccc1.Cl` [alpha-Lobeline hydrochloride] registered a mean under setting [27] of 1.292. Moreover, under setting [28], the Replicate_1 is recorded as 1.696. The same molecule yielded a Replicate_2 under setting [29] of 0.8887.
Turning to `CCn1ccnc1CC1COc2ccccc2O1` (stereo not shown) [Imiloxan hydrochloride], the inhibition at 5 µM runs as follows: under setting [18], 3.1%; under setting [19], 4.11%; under setting [20], 2.09%.
For `OC(CCN1CCCCC1)(c1ccccc1)C1CCCCC1` (stereo not shown) [Trihexyphenidyl hydrochloride], the inhibition at 5 µM reads like this: under setting [13], 1.61%; under setting [14], 1.86%.
`CP(=O)(O)C1=CCNCC1` [TPMPA] yielded a mean under setting [15] of 0.264. Also, the Replicate_1 under setting [16] was -0.09904. Besides, the Replicate_2 under setting [17] came out at 0.6269.
For the molecule `CC(=O)C(C)=NO` [2,3-Butanedione monoxime], the “mean (LOPAC_screen_w_protease)” value under setting [1] is 1.644. Moreover, the “Replicate_1 (LOPAC_screen_w_protease)” value under setting [2] came to 1.791. Under setting [3], the “Replicate_2 (LOPAC_screen_w_protease)” value amounted to 1.497.
Take `NC(N)=NCCCCN=C(N)N` [Arcaine sulfate]: the inhibition at 5 µM under setting [7] turned out to be 0.608%, the inhibition at 5 µM under setting [8] stood at 1.59% and the inhibition at 5 µM under setting [9] is -0.37%.
